# Data as given in patent US7238697B2, “Pyridylpyrimidines for use as pesticides” (Bayer CropScience AG, priority 2001, dated 2007).
# Assay: log P determination by HPLC (reversed-phase C18), EEC Directive 79/831 Annex V.A8
# Assay type: physicochemical
# Conditions: pH 2.3; HPLC, reversed-phase C 18, 43° C., 0.1% aqueous phosphoric acid/acetonitrile; read-out: log P (pH 2.3)
# Description: The stated log P values were determined in accordance with EEC Directive 79/831 Annex V.A8 by HPLC (High Performance Liquid Chromatography) using a reversed-phase column, (C 18). Temperature: 43° C. Mobile phases for the determination in the acidic range: 0.1% aqueous phosphoric acid, acetonitrile; linear gradient from 10% acetonitrile to 90% acetonitrile. Calibration was carried out using unbranched alkan-2-ones (having 3 to 16 carbon atoms) with known logP values (determination of the logP values by the retention times using linear interpolation between two successive alkanones).
row,SMILES,chromatographic logP
1,"CCOC(=O)NCc1nccc(-c2ccccn2)n1 [Example 8, ethyl [4-(2-pyridinyl)-2-pyrimidinyl]methylcarbamate]",1.14

# Same assay, conditions: reversed-phase C18 HPLC column; pH 2.3; HPLC, reversed-phase C 18, 43° C., 0.1% aqueous phosphoric acid/acetonitrile; read-out: log P (pH 2.3)
row,chromatographic logP,SMILES
1,0.99,CS(=O)(=O)c1nccc(-c2ccccn2)n1 [2-(methylsulphonyl)-4-(2-pyridinyl)pyrimidine]
2,1.93,CSc1nccc(-c2ccccn2)n1 [2-(methylthio)-4-(2-pyridinyl)pyrimidine]
3,2.56,"CC(C)OC(=O)CSc1nccc(-c2ccccn2)n1 [Example 1, isopropyl {[4-(2-pyridinyl)-2-pyrimidinyl]thio}-acetate]"
4,2.74,"CCOC(=O)C(C)Sc1nccc(-c2ccccn2)n1 (stereo not drawn) [Example 2, ethyl-2-{[4-(2-pyridinyl)-2-pyrimidinyl]thio}-propanoate]"
5,2.73,"CN(C(=O)CSc1nccc(-c2ccccn2)n1)c1ccc(Cl)cc1 [Example 3, N-(4-chlorophenyl)-N-methyl-2-{[4-(2-pyridinyl)-2-pyrimidinyl]thio}acetamide]"
6,2.45,"CCOC(=O)CSc1nc(C)cc(-c2ccccn2)n1 [Example 4, ethyl {[4-methyl-6-(2-pyridinyl)-2-pyrimidinyl]thio}acetate]"
7,1.14,"CCOC(=O)CNc1nccc(-c2ccccn2)n1 [Example 5, ethyl N-(4-(2-pyridinyl)-2-pyrimidinyl]glycinate]"
8,1.66,"CCOC(=O)CN(C)c1nccc(-c2ccccn2)n1 [Example 6, ethyl N-methyl-N-[4-(2-pyridinyl)-2-pyrimidinyl]glycinate]"
9,1.73,"CCOC(=O)COc1nccc(-c2ccccn2)n1 [Example 7, ethyl {[4-(2-pyridinyl)-2-pyrimidinyl]oxy}acetate]"
10,1.81,COC(=O)CSc1nccc(-c2ccccn2)n1 [Example 10]
11,1.14,O=C(O)CSc1nccc(-c2ccccn2)n1 [Example 11]
12,1.37,COC(=O)CS(=O)(=O)c1nccc(-c2ccccn2)n1 [Example 12]
13,2.17,CCOC(=O)CSc1nccc(-c2ccccn2)n1 [Example 13]
14,1.76,COC(=O)CC(=O)CSc1nccc(-c2ccccn2)n1 [Example 14]
15,2.88,O=C(CSc1nccc(-c2ccccn2)n1)Oc1ccccc1 [Example 15]
16,2.76,CCCOC(=O)CSc1nccc(-c2ccccn2)n1 [Example 16]

row,chromatographic logP,SMILES
1,2.37,C=COC(=O)CSc1nccc(-c2ccccn2)n1 [Example 17]
2,2.4,C=CCOC(=O)CSc1nccc(-c2ccccn2)n1 [Example 18]
3,2.99,O=C(CSc1nccc(-c2ccccn2)n1)OCc1ccccc1 [Example 19]
4,1.97,COCCOC(=O)CSc1nccc(-c2ccccn2)n1 [Example 20]
5,3.53,O=C(CSc1nccc(-c2ccccn2)n1)OC1CCCCC1 [Example 21]
6,2.58,CCOC(=O)C(C)OC(=O)CSc1nccc(-c2ccccn2)n1 (stereo not drawn) [Example 22]
7,2.34,COC(=O)C(Sc1nccc(-c2ccccn2)n1)C(C)=O (stereo not drawn) [Example 23]
8,2.16,COC(=O)C(Sc1nccc(-c2ccccn2)n1)C(=O)OC [Example 24]
9,2.68,CCC(Sc1nccc(-c2ccccn2)n1)C(=O)OC (stereo not drawn) [Example 25]
10,3.5,COC(=O)C(Sc1nccc(-c2ccccn2)n1)c1ccccc1 (stereo not drawn) [Example 26]
11,3.84,COC(=O)C(Cc1cccc(Cl)c1)Sc1nccc(-c2ccccn2)n1 (stereo not drawn) [Example 27]
12,1.8,CCN(CC)C(=O)CSc1nccc(-c2ccccn2)n1 [Example 28]
13,0.69,NC(=O)CSc1nccc(-c2ccccn2)n1 [Example 29]
14,2.92,CCOC(=O)/C=C/CSc1nccc(-c2ccccn2)n1 [Example 30]
15,2.7,COC(=O)/C=C(/CSc1nccc(-c2ccccn2)n1)OC [Example 31]
16,1.81,CC(C)CNC(=O)CSc1nccc(-c2ccccn2)n1 [Example 32]
